Test results taken from ChEMBL document CHEMBL1201862, “PubChem BioAssay data set” (2004).
Calls of active or inactive are those of the source.

Key:
[1] = target: T1, RNA-binding protein pos-1 (Caenorhabditis elegans, UniProt G5EF15); test: inhibitors of POS-1/mex-3 RNA binding, dose response, biochemical, fluorescence polarization (AID 1964);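 note: purified POS-1 fused to maltose binding protein made in E. coli; potency of compounds blocking POS-1 binding to fluorescent RNA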
T1 sequence (G5EF15 whole entry): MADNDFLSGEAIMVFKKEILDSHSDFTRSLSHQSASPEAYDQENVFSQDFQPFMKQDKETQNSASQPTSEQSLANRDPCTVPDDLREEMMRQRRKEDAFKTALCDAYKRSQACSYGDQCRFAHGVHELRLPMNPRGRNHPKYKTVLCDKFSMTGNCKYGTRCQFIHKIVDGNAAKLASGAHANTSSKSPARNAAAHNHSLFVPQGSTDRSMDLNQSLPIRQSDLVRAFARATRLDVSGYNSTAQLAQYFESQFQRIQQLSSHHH

[2] = target: T2, Zinc finger protein mex-5 (Caenorhabditis elegans, UniProt Q9XUB2); test: MEX-5/TCR-2 RNA interaction inhibitors, dose response, biochemical, C. elegans, fluorescence polarization (AID 1960)
T2 sequence (Q9XUB2 whole entry): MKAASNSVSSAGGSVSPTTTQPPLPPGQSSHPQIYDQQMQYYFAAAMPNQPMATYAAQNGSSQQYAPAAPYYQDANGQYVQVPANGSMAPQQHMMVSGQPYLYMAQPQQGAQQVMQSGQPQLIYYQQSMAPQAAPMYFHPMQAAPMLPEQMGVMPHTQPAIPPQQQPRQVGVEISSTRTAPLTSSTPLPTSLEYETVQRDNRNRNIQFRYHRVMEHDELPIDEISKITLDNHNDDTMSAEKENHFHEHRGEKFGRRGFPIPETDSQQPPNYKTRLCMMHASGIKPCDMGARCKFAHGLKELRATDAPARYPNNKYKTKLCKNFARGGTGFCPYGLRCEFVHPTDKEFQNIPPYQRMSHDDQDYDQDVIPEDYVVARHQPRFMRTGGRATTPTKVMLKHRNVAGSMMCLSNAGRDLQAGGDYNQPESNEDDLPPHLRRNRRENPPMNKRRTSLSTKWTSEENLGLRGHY

[3] = cells; format: functional, cell-based
[4] = target: T3, Protein skinhead-1 (Caenorhabditis elegans, UniProt P34707); format: functional
T3 sequence (P34707 whole entry): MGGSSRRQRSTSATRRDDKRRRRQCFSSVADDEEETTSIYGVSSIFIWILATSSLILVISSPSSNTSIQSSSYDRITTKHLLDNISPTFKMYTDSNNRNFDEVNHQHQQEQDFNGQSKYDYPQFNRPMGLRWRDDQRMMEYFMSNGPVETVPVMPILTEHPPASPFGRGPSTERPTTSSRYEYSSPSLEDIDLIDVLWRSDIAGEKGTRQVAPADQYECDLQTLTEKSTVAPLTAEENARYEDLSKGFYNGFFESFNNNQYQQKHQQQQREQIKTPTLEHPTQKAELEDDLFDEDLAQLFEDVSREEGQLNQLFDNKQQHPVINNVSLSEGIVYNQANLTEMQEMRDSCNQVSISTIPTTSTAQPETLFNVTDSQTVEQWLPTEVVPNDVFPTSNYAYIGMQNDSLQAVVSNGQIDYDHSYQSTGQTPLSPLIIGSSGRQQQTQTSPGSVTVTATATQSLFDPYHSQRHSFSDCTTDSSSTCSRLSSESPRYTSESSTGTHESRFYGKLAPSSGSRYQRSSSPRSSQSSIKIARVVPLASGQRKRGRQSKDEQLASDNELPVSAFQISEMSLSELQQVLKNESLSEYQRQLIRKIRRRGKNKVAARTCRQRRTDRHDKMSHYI

[5] = cells; format: functional, cell-based; remark: listed apart in the source
[6] = target: Paired box protein Pax-8 (Homo sapiens, UniProt Q06710); test: inhibitors of PAX8-driven TPO luciferase reporter, dose response, RMG-I cells, cherry-pick (AID 687027); format: functional, cell-based;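 note: luciferase reporter driven by Pax8 target thyroperoxidase promoter measured by SteadyGlo luminescence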
[7] = target: Cytochrome P450 2C9 (Homo sapiens, UniProt P11712)
[8] = control 3'UTR Renilla luciferase suppression, dose response, counter-screen for Shn3 inhibitor project, cell-based, Clone20-Shn3RL, cherry-picked (AID 624133); format: functional
[9] = HepG2 cell cytotoxicity, dose response, cytotoxicity control for Shn3 inhibitor project, CellTiter-Glo, cherry-picked (AID 624134); format: functional, cell-based
[10] = Shn3 3'UTR reporter inhibitors, dose response, cell-based, Clone20 osteoblasts, firefly luciferase, cherry-picked (AID 624132); format: functional;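 note: firefly luciferase luminescence from reporter carrying the Shn3 3'UTR in osteoblasts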
[11] = target: T4, Cytochrome P450 1A2 (Homo sapiens, UniProt P05177);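 note: PubChem cytochrome P450 panel assay, CYP1A2 panel member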
T4 sequence (P05177 whole entry): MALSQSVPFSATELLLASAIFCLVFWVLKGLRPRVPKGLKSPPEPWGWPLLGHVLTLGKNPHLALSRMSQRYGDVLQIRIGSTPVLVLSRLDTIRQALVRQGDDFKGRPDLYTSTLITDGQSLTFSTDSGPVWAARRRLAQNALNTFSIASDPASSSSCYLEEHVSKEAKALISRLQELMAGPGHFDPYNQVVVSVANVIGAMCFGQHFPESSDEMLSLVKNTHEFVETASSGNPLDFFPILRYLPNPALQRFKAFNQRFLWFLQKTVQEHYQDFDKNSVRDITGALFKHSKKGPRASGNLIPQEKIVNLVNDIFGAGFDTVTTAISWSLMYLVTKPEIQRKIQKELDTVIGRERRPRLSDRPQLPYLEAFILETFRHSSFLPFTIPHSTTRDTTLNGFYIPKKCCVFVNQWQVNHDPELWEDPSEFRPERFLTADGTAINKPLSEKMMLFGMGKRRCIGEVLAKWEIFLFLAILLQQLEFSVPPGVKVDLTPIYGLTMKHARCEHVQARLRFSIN

[12] = tested on: BJ; test: cells; format: functional, cell-based; settings: Homo sapiens
[13] = tested on: BJ; test: cytotoxicity toward BJ-TERT fibroblasts, dose response, cell-based, RAS-independent, luminescence (AID 1933); format: functional; settings: Homo sapiens
[14] = tested on: BJ; test: cytotoxicity toward BJ-TERT-LT-ST fibroblasts, dose response, cell-based, RAS-independent, luminescence (AID 1935); format: functional; settings: Homo sapiens;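 note: BJ fibroblasts immortalized with TERT plus LT and ST oncogenes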
[15] = cytotoxicity toward DRD oncogenic fibroblasts, dose response, cell-based, non-viral oncogenic, luminescence (AID 1934); format: functional; settings: Homo sapiens
[16] = target: Cytochrome P450 3A4 (Homo sapiens, UniProt P08684);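 note: CYP3A4 tested as one member of a cytochrome P450 panel screen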
[17] = target: Cytochrome P450 2C19 (Homo sapiens, UniProt P33261); test: Cytochrome panel assay with activity outcomes. Panel member name: p450-cyp2c19 Compounds with AC50 equal or less than 10 uM are considered active; format: functional; settings: read-out: AC50
[18] = inhibitors of HIV Env-driven cell fusion, dose response, cherry-pick (AID 652057); format: functional, cell-based
[19] = inhibitors of clade B AD8 Env fusion, dose response, cell-based, cherry-pick (AID 652062); format: functional;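 note: luciferase signal from cell-cell fusion driven by HIV-1 clade B AD8 Env; potency is for inhibitors of fusion seen as a drop in luminescence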
[20] = growth suppression of PTEN-null colon cells, dose response, cell-based, HCT116 PTEN knockout (AID 1047); format: functional;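 note: HCT116 colon tumor cells with PTEN knocked out; cells exposed to compound for 60 hours before readout; potency for loss of cell viability measured by luminescence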
[21] = growth suppression of beta-catenin-knockout colon cells, dose response, cell-based, HCT116, human colon tumor (AID 1045); format: functional;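 note: HCT116 colon tumor cells with beta catenin knocked out; cells exposed to compound for 60 hours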
[22] = tested on: Streptococcus; test: Group A Streptococcus viability loss, dose response, counter-screen for streptokinase expression inhibitor project, luminescence, BacTiterGlo (AID 1915); format: functional, organism-based;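 note: potency for reduction of bacterial viability or growth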
[23] = target: T5, Streptokinase A (Streptococcus pyogenes serotype M1, UniProt P10520); test: S. pyogenes streptokinase expression inhibitors, potency, dose response, plasminogen activation absorbance, OD405 (AID 1914); format: functional, Streptococcus pyogenes M1 GAS;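 note: secreted streptokinase activity via plasminogen activation per viability signal from cell pellet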
T5 sequence (P10520 whole entry): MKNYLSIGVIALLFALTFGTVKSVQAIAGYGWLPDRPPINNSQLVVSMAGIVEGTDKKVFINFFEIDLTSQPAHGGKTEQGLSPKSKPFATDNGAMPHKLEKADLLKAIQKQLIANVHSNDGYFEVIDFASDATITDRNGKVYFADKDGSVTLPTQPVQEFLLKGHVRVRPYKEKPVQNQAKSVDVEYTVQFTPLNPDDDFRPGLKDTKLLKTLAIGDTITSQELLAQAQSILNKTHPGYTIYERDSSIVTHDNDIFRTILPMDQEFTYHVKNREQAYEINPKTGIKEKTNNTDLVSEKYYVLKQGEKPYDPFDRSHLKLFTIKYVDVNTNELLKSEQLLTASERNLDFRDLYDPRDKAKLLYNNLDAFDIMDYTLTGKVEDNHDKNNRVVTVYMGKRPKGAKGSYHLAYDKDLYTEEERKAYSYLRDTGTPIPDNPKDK

[24] = tested on: Streptococcus sp. 'group A'; test: growth inhibition of control SK(-) GAS strain, dose response, counter-screen for streptokinase expression inhibitor project, luminescence, kanamycin, BacTiterGlo, confirmation (AID 1900); format: functional, organism-based
[25] = cytotoxicity toward NIH3T3 fibroblasts, dose response, counter-screen, cell-based, ATP luminescence, mouse fibroblasts (AID 2010); format: functional;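 note: cells exposed to compound for about 90 hours before reading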
[26] = inhibitors of intracellular T. cruzi replication, confirmation, NIH3T3 host cells, beta-gal luminescence (AID 2044); format: functional, cell-based;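 note: intracellular parasites grown in NIH/3T3 mouse fibroblasts as host cells; luminescent beta-galactosidase reporter signal from transgenic T. cruzi replicating inside host cells; inhibitors lower the luminescence signal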

Cytochrome P450 2C9, sequence (P11712 whole entry): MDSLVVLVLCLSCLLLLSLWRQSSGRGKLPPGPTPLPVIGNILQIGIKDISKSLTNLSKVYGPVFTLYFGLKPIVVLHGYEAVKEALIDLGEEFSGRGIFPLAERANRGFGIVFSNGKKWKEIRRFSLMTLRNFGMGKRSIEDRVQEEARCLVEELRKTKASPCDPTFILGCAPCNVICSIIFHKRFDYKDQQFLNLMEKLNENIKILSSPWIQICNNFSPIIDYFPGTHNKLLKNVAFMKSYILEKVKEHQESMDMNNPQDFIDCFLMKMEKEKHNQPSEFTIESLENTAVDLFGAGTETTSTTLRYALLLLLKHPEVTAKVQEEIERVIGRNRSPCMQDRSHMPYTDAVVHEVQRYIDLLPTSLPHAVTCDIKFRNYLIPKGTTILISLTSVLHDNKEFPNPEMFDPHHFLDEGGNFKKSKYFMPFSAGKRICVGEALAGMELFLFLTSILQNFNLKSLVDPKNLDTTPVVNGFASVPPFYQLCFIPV
Cytochrome P450 2C19, sequence (P33261 whole entry, the tested form may be a part): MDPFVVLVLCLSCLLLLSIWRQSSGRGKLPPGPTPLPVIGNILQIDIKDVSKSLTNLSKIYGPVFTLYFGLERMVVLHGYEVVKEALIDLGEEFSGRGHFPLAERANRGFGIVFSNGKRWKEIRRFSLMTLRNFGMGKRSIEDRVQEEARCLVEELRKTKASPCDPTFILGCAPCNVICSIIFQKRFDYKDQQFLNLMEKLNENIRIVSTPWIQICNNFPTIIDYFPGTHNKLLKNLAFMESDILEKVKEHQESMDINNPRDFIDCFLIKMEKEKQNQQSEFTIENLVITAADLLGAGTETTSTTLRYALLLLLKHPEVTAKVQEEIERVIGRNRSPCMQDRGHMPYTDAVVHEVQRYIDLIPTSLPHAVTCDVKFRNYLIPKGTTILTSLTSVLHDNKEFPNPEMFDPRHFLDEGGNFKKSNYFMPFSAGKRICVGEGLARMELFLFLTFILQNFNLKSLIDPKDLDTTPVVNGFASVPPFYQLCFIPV
Cytochrome P450 3A4, sequence (P08684 whole entry): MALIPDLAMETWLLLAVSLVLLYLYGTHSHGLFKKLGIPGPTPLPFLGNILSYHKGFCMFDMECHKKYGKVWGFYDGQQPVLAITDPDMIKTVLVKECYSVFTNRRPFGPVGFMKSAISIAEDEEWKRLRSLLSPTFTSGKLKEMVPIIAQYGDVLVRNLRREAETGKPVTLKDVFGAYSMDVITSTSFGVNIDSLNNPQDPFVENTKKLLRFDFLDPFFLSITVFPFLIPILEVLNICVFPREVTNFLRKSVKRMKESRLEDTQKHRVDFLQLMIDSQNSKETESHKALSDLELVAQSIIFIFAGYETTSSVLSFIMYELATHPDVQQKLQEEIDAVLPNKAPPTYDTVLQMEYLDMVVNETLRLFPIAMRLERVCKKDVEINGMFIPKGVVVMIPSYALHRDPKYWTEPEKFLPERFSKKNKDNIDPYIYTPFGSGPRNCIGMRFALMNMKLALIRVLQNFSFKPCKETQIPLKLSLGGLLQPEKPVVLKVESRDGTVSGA
Paired box protein Pax-8, sequence (Q06710 whole entry): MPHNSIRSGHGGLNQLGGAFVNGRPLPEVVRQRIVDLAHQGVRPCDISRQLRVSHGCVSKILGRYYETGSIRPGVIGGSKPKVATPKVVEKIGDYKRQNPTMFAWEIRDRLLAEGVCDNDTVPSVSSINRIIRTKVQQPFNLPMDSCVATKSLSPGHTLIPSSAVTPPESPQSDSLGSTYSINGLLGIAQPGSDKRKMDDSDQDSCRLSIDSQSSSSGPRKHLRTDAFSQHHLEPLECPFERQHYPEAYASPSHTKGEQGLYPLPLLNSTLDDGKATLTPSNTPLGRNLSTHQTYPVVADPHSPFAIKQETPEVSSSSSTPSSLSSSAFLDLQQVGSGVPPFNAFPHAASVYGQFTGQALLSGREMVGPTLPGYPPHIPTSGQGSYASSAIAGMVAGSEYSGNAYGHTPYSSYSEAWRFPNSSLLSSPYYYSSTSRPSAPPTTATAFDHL

N=c1c(S(=O)(=O)c2ccccc2)cc2c(=O)n3ccccc3nc2n1Cc1cccnc1
EC50 [1]: 68.1 µM (inconclusive)
EC50 [2]: 6.91 µM (inconclusive)

O=C(O)COc1ccc(/C=C/c2n[nH]c(-c3ccccc3O)n2)cc1
EC50 [1]: > 300 µM (not active)

CCC(=O)N1CCN(c2nc3ccc(Br)cc3s2)CC1
EC50 [3]: > 350 µM (not active)
IC50 [4]: 58.6 µM (inactive)
EC50 [5]: 144 µM (active)

O=C(O)c1cccc(-n2cccc2C=C2C(=O)c3ccccc3C2=O)c1
EC50 [1]: 37 µM (active)
EC50 [2]: 48.5 µM (active)

COc1ccc(S(=O)(=O)Nc2ccc3c(c2)C(=O)N([C@H](C)CO)C[C@H](C)[C@H](CN(C)S(=O)(=O)c2ccc(F)cc2)OCCCC[C@H](C)O3)cc1
AC50 [6]: 4.78 µM (active)

O=S(=O)(c1ccccc1)N1CCCCC1c1cccnc1 (stereo unspecified)
AC50 [7]: inconclusive

CCn1ccnc1C(O)c1ccccc1OC (stereo unspecified)
EC50 [3]: > 350 µM (not active)
EC50 [5]: > 350 µM (not active)

COC(=O)CN1C(=O)[C@H]2[C@@H](c3ccc(C)o3)N3C(=O)CN(CC4CC4)C(=O)[C@@]3(Cc3ccccc3)[C@H]2C1=O
EC50 [3]: > 350 µM (not active)
EC50 [5]: > 350 µM (not active)

Cc1cccc(Cn2c(NCCO)nc3c2c(=O)n(C)c(=O)n3C)c1
AC50 [8]: 2.12 µM (active)
AC50 [9]: 2.83 µM (active)
AC50 [10]: 0.528 µM (active)

COC(=O)CN(c1ccccn1)S(=O)(=O)c1ccccc1
AC50 [11]: 25.1 µM (inconclusive)
AC50 [7]: inconclusive

O=C(Cc1ccc(Br)cc1)NCc1ccccc1
EC50 [12]: 56.3 µM (inconclusive)
EC50 [13]: 11.9 µM (active)
EC50 [14]: 45.4 µM (inconclusive)
EC50 [15]: 4.57 µM (active)

O=C(O/N=C\c1ccc(N2CCCCC2)c([N+](=O)[O-])c1)c1c(F)cccc1F
AC50 [16]: 12.6 µM (inconclusive)
AC50 [17]: 11.2 µM (inconclusive)
AC50 [7]: inconclusive

CC(=O)Nc1ccc(S(=O)(=O)c2ccc(N)cc2)cc1 [MONO-N-ACETYL DAPSONE]
AC50 [7]: inconclusive

O=C(NNS(=O)(=O)c1ccc([N+](=O)[O-])cc1)C(=O)Nc1cccc(C(=O)O)c1
EC50 [1]: 9.52 µM (inconclusive)
EC50 [2]: 12.3 µM (inconclusive)

C[C@H](CO)N1C[C@H](C)[C@H](CN(C)S(=O)(=O)c2ccccc2)Oc2ccc(NC(=O)Cc3ccccc3)cc2CC1=O
AC50 [18]: < 260 nM (active)
AC50 [19]: < 0.26 µM (active)

Cc1ccc(CNC(=O)CCNS(=O)(=O)c2ccc3c(c2)c(=O)n(C)c(=O)n3C)cc1
AC50 [7]: inconclusive

O=C(NNC(=O)C1CCN(S(=O)(=O)c2ccc(Cl)cc2)CC1)c1ccc(Cl)cc1
AC50 [16]: 3.55 µM (inconclusive)
AC50 [7]: inconclusive

CCCN(CCC)CCCNS(=O)(=O)c1cc(Br)cc2c1N(C(C)=O)CC2
AC50 [17]: 31.6 µM (inconclusive)
AC50 [7]: inconclusive

O=C(NCc1cccc(Cl)c1)c1cc(COc2ccc3ncccc3c2)on1
AC50 [8]: 14.8 µM (active)
AC50 [9]: 38.7 µM (active)
AC50 [10]: 3.05 µM (active)

COc1ccc(CC(=O)Nc2cccc(-c3nnc(-c4ccccc4)o3)c2)cc1OC
EC50 [20]: 25.4 µM (active)
EC50 [3]: > 350 µM (not active)
EC50 [21]: 69.6 µM (active)
EC50 [5]: > 350 µM (not active)

Cc1cc(C)c(N2C(=O)NC(=O)/C(=C\NNC(=O)c3ccncc3)C2=O)c(C)c1
EC50 [1]: 64.7 µM (active)
EC50 [2]: 36.6 µM (active)

Cc1cc2ncn(S(=O)(=O)N3CCCCC3)c2cc1C
AC50 [18]: 5540 nM (active)
AC50 [19]: 60.6 µM (active)

Brc1cc2c(cc1C1Nc3ccccc3C3C=CCC31)OCO2 (stereo unspecified)
EC50 [1]: > 300 µM (not active)
EC50 [22]: 25.4 µM (active)
EC50 [23]: 2.55 µM (active)
EC50 [24]: 7.1 µM (active)
EC50 [2]: > 300 µM (not active)

CC(=O)Nc1cccc(NC(=O)CSc2ncc(-c3ccc(Cl)cc3)n2Cc2ccco2)c1
AC50 [8]: 10.7 µM (active)
AC50 [9]: 60.2 µM (active)
AC50 [10]: 4.95 µM (active)

COc1cc(C(=O)N2CCN(c3ccc(C)cc3C)CC2)cc(OC)c1OC
EC50 [12]: 138 µM (inconclusive)
EC50 [20]: 2.65 µM (active)
EC50 [13]: 11.9 µM (active)
EC50 [14]: 21.8 µM (inconclusive)
EC50 [21]: 3.45 µM (active)
EC50 [15]: 3.97 µM (active)

C/C(=N\c1ccc(Br)cc1)c1sc2ccccc2c1O
EC50 [1]: > 300 µM (not active)
EC50 [25]: > 60 µM (not active)
EC50 [26]: 4.08 µM (active)
EC50 [2]: > 300 µM (inconclusive)

CNc1nc(C)cc(C)c1S(=O)(=O)c1ccc(C)cc1
AC50 [7]: inconclusive
